Experimental data reported in the NIST ThermoML archive (doi:10.1016/j.jct.2009.07.001).
Numbers after ± are expanded uncertainties.

Assay: excess molar enthalpy (molar enthalpy of mixing); xn = mol fraction of the nth substance listed
Conditions: 298.15 K, 101 kPa, Liquid, Calvet calorimetry

Work on `CCCCCCCCCCO` [decan-1-ol] + CCCCOCCCC yielded an excess molar enthalpy (x1 = 0.0549) of 0.0829 ± 0.00335 kcal/mol, an excess molar enthalpy (x1 = 0.1045) of 0.13 ± 0.00526 kcal/mol and an excess molar enthalpy (x1 = 0.1508) of 0.159 ± 0.00645 kcal/mol. It also gave an excess molar enthalpy (x1 = 0.1992) of 0.18 ± 0.00741 kcal/mol, an excess molar enthalpy (x1 = 0.2491) of 0.194 ± 0.00789 kcal/mol and an excess molar enthalpy (x1 = 0.2975) of 0.204 ± 0.00837 kcal/mol. For the same molecule, the excess molar enthalpy (x1 = 0.3443) was 0.207 ± 0.00837 kcal/mol, the excess molar enthalpy (x1 = 0.3964) was 0.208 ± 0.00837 kcal/mol and the excess molar enthalpy (x1 = 0.4484) was 0.214 ± 0.00884 kcal/mol. The excess molar enthalpy (x1 = 0.4966) was 0.199 ± 0.00813 kcal/mol, the excess molar enthalpy (x1 = 0.5428) was 0.186 ± 0.00765 kcal/mol and the excess molar enthalpy (x1 = 0.5887) was 0.175 ± 0.00717 kcal/mol. For the same molecule, the excess molar enthalpy (x1 = 0.646) was 0.157 ± 0.00645 kcal/mol, the excess molar enthalpy (x1 = 0.6819) was 0.146 ± 0.00598 kcal/mol and the excess molar enthalpy (x1 = 0.7402) was 0.123 ± 0.00502 kcal/mol. It also gave an excess molar enthalpy (x1 = 0.7812) of 0.106 ± 0.0043 kcal/mol, an excess molar enthalpy (x1 = 0.8272) of 0.0825 ± 0.00335 kcal/mol and an excess molar enthalpy (x1 = 0.8767) of 0.0595 ± 0.00239 kcal/mol. For the same molecule, the excess molar enthalpy (x1 = 0.9225) was 0.0356 ± 0.00143 kcal/mol.
